Experimental data reported in patent publication US20050234122A1, “Prevention of and countermeasures against viral infection” (LIFE SCIENCE INSTITUTE, LTD., priority 2004, published 2005).

Experiments:
immune function = details: cited from earlier work
[1] = rats suffering from artificial peritonitis; cited from earlier work
[2] = Activity of vitamin C in drip infusion depending on pH; type: physicochemical; details: drip infusion with a pH of 7.0 or greater
[3] = Oxidation of vitamin C dissolved in a juice; type: physicochemical; details: within about 90 minutes
[4] = Viscosity of mucopolysaccharides after adding vitamin C (Oswald viscometer); details: vitamin C added to mucopolysaccharides

Row | SMILES | decreased weight of the thymus gland and decreased T-cells' capability of blast transformation (immune function; rat suffering from fracture) | T-cells' capability of blast transformation (immune function; rats) | weight of the thymus gland (immune function; rats) | survivorship [1] | activity of vitamin C [2] | vitamin C that becomes an oxidized derivative [3] [%] | viscosity of the mixture [4]
1 | N=C(N)NCCC[C@H](N)C(=O)O [arginine] | recovered | increases | increases | remarkably increased survivorship | – | – | –
2 | O=C1O[C@H]([C@@H](O)CO)C(O)=C1O [vitamin C, ascorbic acid] | – | – | – | – | decreases | 50 | gradually decreases
